Measured values: patent US6573271B2, “Method of preventing proliferation of retinal pigment epithelium by retinoic acid receptor agonists” (John Hopkins University School of Medicine, priority 1995, dated 2003)

Tests used:
[1] = molecular target: T1, RARγ (Homo sapiens, UniProt P13631); experiment: Transactivation, ER/RAR-γ hybrid receptor + ERE-CAT reporter cotransfected in HeLa cells
T1 sequence (P13631 185-419 limits assumed): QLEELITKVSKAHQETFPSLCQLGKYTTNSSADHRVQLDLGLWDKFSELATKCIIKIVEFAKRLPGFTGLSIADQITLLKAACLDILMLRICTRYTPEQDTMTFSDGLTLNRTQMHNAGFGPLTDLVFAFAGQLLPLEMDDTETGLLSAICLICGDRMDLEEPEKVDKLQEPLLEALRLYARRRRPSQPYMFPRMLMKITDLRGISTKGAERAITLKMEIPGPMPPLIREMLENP

[2] = tested on: RPE cells; experiment: RPE cell morphology after 10 days in retinoid; assay type: cell-based, human; settings: 1 μm, 5% serum, on plastic
[3] = molecular target: T2, RARβ (Homo sapiens, UniProt P10826); experiment: Transactivation, ER/RAR-β hybrid receptor + ERE-CAT reporter cotransfected in HeLa cells
T2 sequence (P10826 183-417 limits assumed): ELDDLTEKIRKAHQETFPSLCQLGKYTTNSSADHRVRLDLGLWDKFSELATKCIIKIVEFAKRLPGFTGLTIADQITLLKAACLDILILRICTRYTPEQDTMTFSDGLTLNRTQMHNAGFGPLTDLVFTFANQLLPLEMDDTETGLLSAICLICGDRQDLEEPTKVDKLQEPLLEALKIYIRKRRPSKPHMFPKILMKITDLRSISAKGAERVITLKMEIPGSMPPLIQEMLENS

[4] = tested on: rabbit cell injection model of PVR; experiment: Rabbit cell injection model of PVR (RPE cells), intravitreous injection of retinoids; assay type: in vivo; settings: for Any RD (%) / Total RD (%): 28 Days
Method: Briefly, pigmented rabbits were anesthetized with a subcutaneous injection of 5 mg/kg of xylazine and 25 mg/kg of ketamine, and the pupil of one eye was dilated with 2½% phenylephrine. Under direct observation 5×10^5 RPE cells were injected into the vitreous cavity just anterior to the optic nerve. […] .
Rabbits were examined by indirect ophthalmoscopy on days 7, 14 and 28 and traction retinal detachments were graded. […] . The localized clouds decreased in size and cleared over 2 to 3 weeks. There were no visible changes in the retina. […] .
It was felt that the hair loss and possibly the loss of appetite and death were due to systemic toxicity from drug that had gotten out of the eye. […] . None of the rabbits experienced hair loss and none died; their appetites appeared to be normal.

[5] = tested on: retinas of the rabbits; experiment: Ocular toxicity after single intravitreous injection, histopathology of retina; assay type: in vivo, rabbit; settings: single intravitreous injection of 100 μg, two weeks after injection
Description: The rabbits were killed two weeks after injection.

[6] = molecular target: T3, RXRα (Homo sapiens, UniProt P19793); experiment: Transactivation, ER/RXR-α hybrid receptor + ERE-CAT reporter cotransfected in HeLa cells
T3 sequence (P19793 227-458 limits assumed): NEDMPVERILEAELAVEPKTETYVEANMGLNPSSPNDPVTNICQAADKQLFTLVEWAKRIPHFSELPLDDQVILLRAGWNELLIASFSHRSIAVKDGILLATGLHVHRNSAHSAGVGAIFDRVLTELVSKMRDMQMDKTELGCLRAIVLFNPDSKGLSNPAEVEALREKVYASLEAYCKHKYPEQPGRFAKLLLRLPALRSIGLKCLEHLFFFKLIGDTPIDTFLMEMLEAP

[7] = tested on: human RPE cells; experiment: [3H]thymidine incorporation / proliferation of cultured human RPE cells
Description: Primary cultures of human retinal pigment epithelium (RPE) cells were established from eyes obtained from the Old Dominion Eye Bank (Richmond, Va.) or the Eye Bank of Maryland (Baltimore, Md.) using the technique described in P. A. Campochiaro, et al., Invest.
For [3H]thymidine incorporation, RPE cells at passage 3 or 4 were lightly trypsinized and plated in 16-mm wells of 24-well plates. The transfected cells were allowed to attach overnight and then the media containing 5% fetal bovine serum (FBS) were supplemented with retinoids or vehicle alone. Stock solutions (10^−3M) of retinoids were prepared in dimethylsulfoxide (DMSO) and stored as frozen aliquots until used; the highest final concentration of DMSO was 0.1% and was also used for control cultures. The media containing freshly prepared retinoids were changed every three days. At 7 or 10 days 2 μCi/ml of [^3H]thymidine (specific activity, 6.7 Ci/mM; New England Nuclear, Boston, Mass.) was added to the cultures and incorporation was measured as previously described (Leschey, supra).
The potency of retinoid agonists for inhibition of serum stimulated DNA synthesis in human RPE cells was tested. […] The cells were shifted to serum-free media containing the same concentration of retinoid and then pulsed with 10% serum for 18 hours, after which [^3H]thymidine incorporation was measured. Thymidine incorporation for cells grown in control medium was used to calculate the percent inhibition of thymidine incorporation induced by four concentrations of each retinoid (each concentration tested in triplicate) which were then used to generate each line.

[8] = 100 μg intravitreous, two injections (day 1 and day 2 after cell injection)
[9] = 100 μg intravitreous, two injections
[10] = 100 μg, single intravitreous injection
[11] = Homo sapiens, RPE, read-out: Percent Inhibition of [3H]thymidine incorporation in RPE cells

SMILES: C/C(=C\c1cc(C(=O)O)cs1)c1cc2c(cc1C)C(C)(C)CCC2(C)C [Compound 701, 2-[(E)-2-(5,6,7,8-tetrahydro-3,5,5,8,8-pentamethylnaphthaleen-2-yl)propen-1-yl]thiophene-4-carboxylic acid]
- EC50 [1]: 1000 nM
- RPE cell morphology / cell overgrowth [2]: failed to prevent cell overgrowth
- EC50 [3]: 3000 nM
- Partial RD at 14 Days (number of eyes) [4, 8]: 3
- Partial RD at 28 Days (number of eyes) [4, 8]: 2
- Total RD at 14 Days (number of eyes) [4, 8]: 3
- Total RD at 28 Days (number of eyes) [4, 8]: 5
- Any RD (%) [4, 9]: 87.5%
- Total RD (%) [4, 9]: 62.5%
- Partial RD at 14 Days (number of eyes) [4, 10]: 2
- Partial RD at 28 Days (number of eyes) [4, 10]: 1
- Total RD at 14 Days (number of eyes) [4, 10]: 2
- Total RD at 28 Days (number of eyes) [4, 10]: 3
- Any RD (%) [4, 10]: 80%
- Total RD (%) [4, 10]: 60%
- frequency and severity of traction retinal detachments versus vehicle ([4]; initial group, intravitreous injections of 100 μg): did not differ from controls
- frequency and severity of retinal detachments versus control ([4]; single intravitreous injection one day after RPE cell injection): not statistically different from controls
- inner retinal edema, histopathology [5]: a few focal areas of inner retinal edema
- retinal necrosis, histopathology [5]: a few focal areas of retinal necrosis
- EC50 [6]: 100 nM
- inhibition at 0.05 µM [7, 11]: 12%
- inhibition at 0.1 µM [7, 11]: 48.8%
- inhibition at 1 µM [7, 11]: 74.6%
- inhibition of RPE [3H]thymidine incorporation ([7]; incubation for 7 or 10 days): much less effective inhibitor
